# From patent US7056734B1, “Differentiation of non-insulin producing cells into insulin producing cells by GLP-1 or exendin-4 and uses thereof” (The United States of America as represented by the …, priority 1998, dated 2006)
# Assays:
# AR42J cells [1] = settings: Mashima et al., 1996; cited from earlier work
# AR42J cells [2] = experiment: 125I-GLP-1 binding to AR42J cells; design: species or system rat; dose or concentration left out as unconfirmed; settings: displacement by cold GLP-1, n=9
# Protocol: GLP-1 binding. AR42J cells were plated and cultured as described above. At the start of the binding experiment the cells were incubated with serum-free DMEM for 2 h at 37° C. Cells were then washed twice with 0.5 ml binding buffer containing (in mM) 120 NaCl, 1.2 MgSO4, 13 sodium acetate, 5 KCl, 10 Tris, pH 7.6. […] We only used freshly prepared ^125I-GLP-1 within two weeks of the reference date. At the end of the incubation, the supernatant was discarded and the cells were washed three times with ice-cold PBS. Cells were lysed with 0.5 ml 0.5 N NaOH/0.1% SDS for 30 min at room temperature. The radioactivity was measured in the lysates in an ICN Apec series gamma counter. […] This method has been used previously to characterize GLP-1 binding in CHO cells overexpressing GLP-1 receptor and in 3T3-L1 adipocytes (Montrose-Rafizadeh et al., J. Biol. Chem., 1997; Montrose-Rafizadeh et al., J Cell Physiol., 1997).
Substance,AR42J cells converted into insulin-producing / insulin positive cells (AR42J cells [1]),"specific 125I-GLP-1 binding, % of total binding (AR42J cells [2])","specific 125I-GLP-1 binding, % of total radioactivity added (AR42J cells [2])"
HGF: hepatocyte growth factor,about 3%,,
"^125I-GLP-1: radiolabelled GLP-1 (2,000 Ci/mmol, Peninsula)",,27±3.2%,0.64±0.16%
